Values of other authors, collected in PMC12308805, “Ultrahigh-Throughput Virtual Screening Strategies against PPI Targets: A Case Study of STAT Inhibitors” (Journal of Chemical Information and Modeling, 2025).
Like-named read-outs stand apart in the source and are kept apart here. Square brackets hold non-standard residues; d marks the D form. Peptide text beside a SMILES is read from it. * marks the point of attachment. pY = N[C@@H](Cc1ccc(OP(=O)(O)O)cc1)C(=O)O; NHBn = c1ccc(CN*)cc1

Test system: STAT3
Conditions: cited from earlier work; for Type: retrospective screening set for STAT3 SH2 domain (PDB 6QHD), not tested, ref DUD-E
[1] = sheet 6QHD_actives_decoys, known STAT3 actives of the retrospective screening set, ref ChEMBL / literature
[2] = sheet 6QHD_actives_decoys, decoys generated with DUD-E and presumed inactive
[3] = sheet 6QHD_actives_decoys, decoys are presumed inactives

Structure (SMILES) | Type [2] | other results
CC(=O)N[C@@H](Cc1ccc(OP(=O)(O)O)cc1)C(=O)N[C@@H](CC(C)C)C(=O)N1CCC[C@H]1C(=O)N[C@@H](CCC(N)=O)C(=O)NCc1ccccc1 [CHEMBL194855] (Ac-[pY]LPQ-NHBn) |  | Type (known STAT3 active) [1]: Active
CC(=O)N[C@@H](Cc1ccc(OP(=O)(O)O)cc1)C(=O)N[C@@H](CC(C)C)C(=O)N1CCC[C@H]1C(=O)N[C@H](CCC(N)=O)C(=O)N[C@@H](C(N)=O)[C@H](C)O [CHEMBL160353] (Ac-[pY]LP[dQ][dT]-NH2) |  | Type (known STAT3 active): Active
COC(=O)c1sc(NC(=O)c2ccc(C(=O)Nc3sc(C(=O)OC)c(C)c3C(=O)OC)cc2)c(C(=O)OC)c1C [Decoy394] | Inactive (Decoy) | 
CCN(CC)c1ccc(/C=N/NC(=O)CSc2nnc(-c3cc(OC)c(OC)c(OC)c3)n2-c2ccccc2)c(O)c1 [Decoy703] | Inactive (Decoy) | 
CCOC(=O)C1=C(CNc2cc(S(=O)(=O)N(CC)CC)ccc2OC)NC(=O)N[C@H]1c1cc(C)ccc1C [Decoy395] | Inactive (Decoy) | 
CC(=O)OC[C@@H]1O[C@H](O)[C@H](OC(C)=O)[C@H](OC(C)=O)[C@@H]1O[C@@H]1O[C@H](COC(C)=O)[C@@H](O)[C@H](OC(C)=O)[C@@H]1OC(C)=O [Decoy413] | Inactive (Decoy) | 
CCCCCCCCCCC/C=C/C(=O)N[C@H]1[C@@H](O[C@H]2O[C@@H](CO)[C@@H](O)[C@@H](O)[C@H]2NC(C)=O)O[C@@H](C[C@H](O)[C@H]2O[C@@H](n3ccc(=O)[nH]c3=O)[C@@H](O)[C@H]2O)[C@@H](O)[C@H]1O [Decoy557] | Inactive (Decoy) | 
CCCCCN(C(=O)Cn1c(=O)n(CC)c(=O)c2ccccc21)c1c(N)n(CCCC)c(=O)[nH]c1=O [Decoy603] | Inactive (Decoy) | 
COc1ccccc1NS(=O)(=O)c1ccc(O)c(C(=O)OCC(=O)c2ccc3c(c2)NC(=O)CO3)c1 [Decoy538] | Inactive (Decoy) | 
CC(=O)O[C@@H]1[C@@H](O)[C@@H](O[C@@H](C/N=C/c2c(O)cc(O)c3ccccc23)[C@@H](CO)O[C@H](O)C/N=C/c2c(O)cc(O)c3ccccc23)O[C@@H](CO)[C@H]1O [Decoy475] | Inactive (Decoy) | 
O=C(O)CCCNC(=O)[C@@H]1Cc2cccc3c2N1C(=O)[C@@H](NC(=O)/C=C/c1ccc(OP(=O)(O)O)cc1)CC3 [CHEMBL475488] |  | Type (known STAT3 active) [1]: Active
CC[C@@H](c1nnnn1CCOC)N(CCc1ccc(OC)c(OC)c1)Cc1cc2c(C)cc(C)cc2[nH]c1=O [Decoy616] | Inactive (Decoy) | 
CCN(CC)C(=O)c1c[nH]c2ccc(S(=O)(=O)Nc3ccc4c(c3)OCCO4)cc2c1=O [Decoy907] |  | Type [3]: Inactive (Decoy)
CC(=O)N[C@H]1[C@H]([C@H](O)[C@H](O)CO)O[C@@](O[C@H]2[C@@H](O)[C@@H](CO)O[C@@H](O[C@@H]([C@H](O)[C@@H](O)C=O)[C@H](O)CO)[C@@H]2O)(C(=O)O)C[C@@H]1O [Decoy664] | Inactive (Decoy) | 
COc1ccc([N+](=O)[O-])cc1N(C[C@H](O)CN(Cc1ccccc1)Cc1ccccc1)S(=O)(=O)c1ccccc1 [Decoy741] |  | Type [3]: Inactive (Decoy)
CCCn1c(O)nnc1SCC1=C(C(=O)OCC)[C@H](c2ccc(Cl)cc2)NC(=O)N1 [Decoy576] | Inactive (Decoy) | 
COc1ccccc1CNC(=O)C[C@@H]1[C@H](O)CC[C@@H]2[C@](C)(CO)[C@H](OC(=O)Nc3cc(OC)c(OC)c(OC)c3)CC[C@]21C [Decoy724] | Inactive (Decoy) | 
CCCOc1ccc([C@@H]2c3c(n[nH]c3-c3cc(C)cc(C)c3O)C(=O)N2CCCOC(C)C)cc1OCC [Decoy897] |  | Type [3]: Inactive (Decoy)
CCc1c(C)nc(-n2nc(-c3ccco3)cc2NC(=O)c2cc(OC)c(OC)cc2[N+](=O)[O-])nc1O [Decoy834] |  | Type [3]: Inactive (Decoy)
CCN(CC)C1=NC(=O)[C@@H](CC(=O)Nc2cccc(C(=O)OCC(=O)c3ccc(C)cc3)c2)S1 [Decoy495] | Inactive (Decoy) | 
